Results taken from US8815872B2, “Macrocyclics pyrimidines as aurora kinase inhibitors” (Merck Patent GmbH, priority 2008, dated 2014).

Experiments:
[1] = from C=CCOc1cccc(Nc2ncc(F)c(N[C@H]3[C@@H](C(N)=O)[C@@H]4C=C[C@H]3C4)n2)c1; rcm bond; Grubbs 2nd generation; dichloromethane; 19.2 mM; 40.0 °C; 3.0 h
CHK1(h) = target: T1, CHK1(h) (Homo sapiens, UniProt O14757); assay: Other kinases, single-concentration inhibition (Table 3); format: biochemical; conditions: 1 μM
T1 construct: purchased Caliper Life Sciences
T1 sequence (O14757 whole entry): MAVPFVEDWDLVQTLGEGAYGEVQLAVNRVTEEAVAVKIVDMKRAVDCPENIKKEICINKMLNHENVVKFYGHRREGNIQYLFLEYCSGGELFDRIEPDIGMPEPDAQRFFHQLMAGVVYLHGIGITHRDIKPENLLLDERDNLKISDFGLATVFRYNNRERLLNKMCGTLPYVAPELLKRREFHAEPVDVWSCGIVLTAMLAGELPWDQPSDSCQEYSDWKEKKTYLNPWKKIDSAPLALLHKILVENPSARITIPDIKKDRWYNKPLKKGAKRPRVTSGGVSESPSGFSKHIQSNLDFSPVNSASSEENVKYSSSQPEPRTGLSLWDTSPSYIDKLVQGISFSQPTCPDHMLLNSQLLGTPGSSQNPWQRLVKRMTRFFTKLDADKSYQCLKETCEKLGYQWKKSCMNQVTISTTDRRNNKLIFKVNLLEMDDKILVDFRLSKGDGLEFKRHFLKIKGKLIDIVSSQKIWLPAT
How it was run: (§1)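 Kinase + cpd (single conc.) → add fluorescent peptide/ATP → 90 min, 25 °C → stop with EDTA/HEPES pH 7.5 → microfluidic separation of product vs substrate. % inhibition vs uninhibited and no-ATP controls.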

DDR2(h) = target: T2, DDR2(h) (Homo sapiens, UniProt Q16832); assay: as above; format: biochemical; conditions: 1 μM
T2 construct: purchased Caliper Life Sciences
T2 sequence (Q16832 22-855): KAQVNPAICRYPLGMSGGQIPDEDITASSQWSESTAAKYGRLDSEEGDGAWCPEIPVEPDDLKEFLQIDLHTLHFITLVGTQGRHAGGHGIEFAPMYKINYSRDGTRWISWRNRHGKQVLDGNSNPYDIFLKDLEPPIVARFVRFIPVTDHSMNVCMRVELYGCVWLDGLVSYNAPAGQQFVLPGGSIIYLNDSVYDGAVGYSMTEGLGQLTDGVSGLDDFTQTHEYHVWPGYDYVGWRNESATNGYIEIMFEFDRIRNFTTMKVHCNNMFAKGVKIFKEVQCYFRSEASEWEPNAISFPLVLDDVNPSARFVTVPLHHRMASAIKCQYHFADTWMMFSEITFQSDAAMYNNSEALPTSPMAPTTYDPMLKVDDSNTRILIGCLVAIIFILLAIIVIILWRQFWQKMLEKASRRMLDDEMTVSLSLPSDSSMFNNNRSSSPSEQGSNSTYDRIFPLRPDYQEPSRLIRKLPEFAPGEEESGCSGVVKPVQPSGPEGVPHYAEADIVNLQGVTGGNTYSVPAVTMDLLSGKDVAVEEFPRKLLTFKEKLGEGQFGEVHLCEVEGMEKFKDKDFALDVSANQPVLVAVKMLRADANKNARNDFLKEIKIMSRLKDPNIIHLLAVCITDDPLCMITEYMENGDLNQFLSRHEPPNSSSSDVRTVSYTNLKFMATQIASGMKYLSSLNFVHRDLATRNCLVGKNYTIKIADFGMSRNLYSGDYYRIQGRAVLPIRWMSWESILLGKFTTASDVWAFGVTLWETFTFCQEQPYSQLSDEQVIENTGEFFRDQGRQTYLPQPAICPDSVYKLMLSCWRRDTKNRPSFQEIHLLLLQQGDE
How it was run: as §1

FGFR1(h) = target: T3, FGFR1(h) (Homo sapiens, UniProt P11362); assay: as above; format: biochemical; conditions: 1 μM
T3 construct: purchased Caliper Life Sciences
T3 sequence (P11362 22-822): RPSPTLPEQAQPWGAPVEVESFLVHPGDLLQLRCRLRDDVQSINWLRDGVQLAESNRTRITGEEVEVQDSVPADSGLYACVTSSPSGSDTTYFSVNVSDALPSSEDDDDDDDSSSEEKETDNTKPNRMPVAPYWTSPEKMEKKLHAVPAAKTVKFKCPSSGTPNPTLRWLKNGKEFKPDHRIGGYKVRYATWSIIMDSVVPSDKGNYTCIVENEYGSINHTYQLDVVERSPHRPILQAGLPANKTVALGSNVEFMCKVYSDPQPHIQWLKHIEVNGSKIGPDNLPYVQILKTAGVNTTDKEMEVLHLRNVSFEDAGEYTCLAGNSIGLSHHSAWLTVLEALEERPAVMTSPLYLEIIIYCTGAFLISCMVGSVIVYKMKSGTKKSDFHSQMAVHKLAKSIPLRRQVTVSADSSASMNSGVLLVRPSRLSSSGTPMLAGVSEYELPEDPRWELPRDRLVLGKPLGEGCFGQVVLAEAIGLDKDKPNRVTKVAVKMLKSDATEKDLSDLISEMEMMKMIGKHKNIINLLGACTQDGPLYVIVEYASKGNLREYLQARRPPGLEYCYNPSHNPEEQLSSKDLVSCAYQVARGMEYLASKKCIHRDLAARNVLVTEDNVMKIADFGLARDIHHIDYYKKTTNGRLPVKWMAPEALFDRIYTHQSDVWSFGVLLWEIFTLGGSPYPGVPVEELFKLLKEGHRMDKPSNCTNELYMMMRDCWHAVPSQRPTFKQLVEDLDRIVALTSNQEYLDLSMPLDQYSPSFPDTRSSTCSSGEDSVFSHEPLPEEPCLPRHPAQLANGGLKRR
How it was run: as §1

Lyn(h) = target: T4, Lyn(h) (Homo sapiens, UniProt P07948); assay: as above; format: biochemical; conditions: 1 μM
T4 construct: purchased Caliper Life Sciences
T4 sequence (P07948 whole entry): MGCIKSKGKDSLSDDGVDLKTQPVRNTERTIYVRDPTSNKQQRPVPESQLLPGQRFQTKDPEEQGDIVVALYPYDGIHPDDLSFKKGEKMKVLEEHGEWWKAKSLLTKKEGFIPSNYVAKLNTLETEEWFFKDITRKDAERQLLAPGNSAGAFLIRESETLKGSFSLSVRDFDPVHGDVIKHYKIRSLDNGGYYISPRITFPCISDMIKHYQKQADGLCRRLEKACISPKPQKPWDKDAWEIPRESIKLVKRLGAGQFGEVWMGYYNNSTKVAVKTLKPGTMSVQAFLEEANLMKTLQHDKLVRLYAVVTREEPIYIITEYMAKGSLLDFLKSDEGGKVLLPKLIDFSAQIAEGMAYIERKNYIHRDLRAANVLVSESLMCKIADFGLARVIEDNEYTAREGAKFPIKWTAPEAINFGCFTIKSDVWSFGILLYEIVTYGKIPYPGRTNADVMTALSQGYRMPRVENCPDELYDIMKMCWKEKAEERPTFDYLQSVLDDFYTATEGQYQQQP
How it was run: as §1

Plk1(h) = target: T5, Plk1(h) (Homo sapiens, UniProt P53350); assay: as above; format: biochemical; conditions: 1 μM
T5 construct: purchased Caliper Life Sciences
How it was run: as §1

Plk3(h) = target: T6, Plk3(h) (Homo sapiens, UniProt Q9H4B4); assay: as above; format: biochemical; conditions: 1 μM
T6 construct: purchased Caliper Life Sciences
T6 sequence (Q9H4B4 whole entry): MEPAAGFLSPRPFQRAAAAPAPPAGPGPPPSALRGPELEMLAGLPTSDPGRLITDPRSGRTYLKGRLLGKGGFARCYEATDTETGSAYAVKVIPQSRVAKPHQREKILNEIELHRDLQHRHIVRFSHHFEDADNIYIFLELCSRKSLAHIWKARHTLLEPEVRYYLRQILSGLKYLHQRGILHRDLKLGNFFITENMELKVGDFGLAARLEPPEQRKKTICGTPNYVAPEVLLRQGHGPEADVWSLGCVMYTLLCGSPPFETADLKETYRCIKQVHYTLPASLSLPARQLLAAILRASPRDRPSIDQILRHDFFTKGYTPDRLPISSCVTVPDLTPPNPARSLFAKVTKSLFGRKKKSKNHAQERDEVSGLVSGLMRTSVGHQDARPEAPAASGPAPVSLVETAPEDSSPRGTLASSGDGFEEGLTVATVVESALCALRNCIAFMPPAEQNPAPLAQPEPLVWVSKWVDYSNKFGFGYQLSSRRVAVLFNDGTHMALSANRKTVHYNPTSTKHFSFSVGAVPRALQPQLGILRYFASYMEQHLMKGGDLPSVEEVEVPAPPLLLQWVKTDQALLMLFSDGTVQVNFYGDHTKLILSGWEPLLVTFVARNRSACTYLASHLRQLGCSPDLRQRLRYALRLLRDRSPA
How it was run: as §1

SIK(h) = target: T7, SIK(h) (Homo sapiens, UniProt P57059); assay: as above; format: biochemical; conditions: 1 μM
T7 construct: purchased Caliper Life Sciences
T7 sequence (P57059 whole entry): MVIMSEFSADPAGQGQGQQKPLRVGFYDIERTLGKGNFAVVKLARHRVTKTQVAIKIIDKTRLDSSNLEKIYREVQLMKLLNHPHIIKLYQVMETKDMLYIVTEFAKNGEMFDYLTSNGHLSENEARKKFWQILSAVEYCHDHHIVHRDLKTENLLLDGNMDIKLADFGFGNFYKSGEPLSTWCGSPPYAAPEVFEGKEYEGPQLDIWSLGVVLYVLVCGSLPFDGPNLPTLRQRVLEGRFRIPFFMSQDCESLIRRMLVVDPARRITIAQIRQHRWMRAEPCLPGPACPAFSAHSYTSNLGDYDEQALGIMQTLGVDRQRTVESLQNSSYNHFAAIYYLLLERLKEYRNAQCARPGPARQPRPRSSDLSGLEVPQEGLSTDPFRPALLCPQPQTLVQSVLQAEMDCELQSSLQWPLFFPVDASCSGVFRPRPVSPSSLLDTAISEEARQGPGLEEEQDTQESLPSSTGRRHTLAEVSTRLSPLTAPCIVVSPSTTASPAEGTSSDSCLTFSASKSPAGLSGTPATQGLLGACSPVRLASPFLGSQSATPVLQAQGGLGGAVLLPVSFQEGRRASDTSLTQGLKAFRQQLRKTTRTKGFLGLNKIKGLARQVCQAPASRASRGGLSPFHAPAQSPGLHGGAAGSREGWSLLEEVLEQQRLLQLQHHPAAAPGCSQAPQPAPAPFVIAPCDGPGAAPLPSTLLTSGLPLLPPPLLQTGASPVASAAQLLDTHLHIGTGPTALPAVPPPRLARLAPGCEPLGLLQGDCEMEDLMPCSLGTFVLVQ
How it was run: as §1

c-RAF(h) = target: T8, c-RAF(h) (Homo sapiens, UniProt P04049); assay: as above; format: biochemical; conditions: 1 μM
T8 construct: purchased Caliper Life Sciences
T8 sequence (P04049 whole entry): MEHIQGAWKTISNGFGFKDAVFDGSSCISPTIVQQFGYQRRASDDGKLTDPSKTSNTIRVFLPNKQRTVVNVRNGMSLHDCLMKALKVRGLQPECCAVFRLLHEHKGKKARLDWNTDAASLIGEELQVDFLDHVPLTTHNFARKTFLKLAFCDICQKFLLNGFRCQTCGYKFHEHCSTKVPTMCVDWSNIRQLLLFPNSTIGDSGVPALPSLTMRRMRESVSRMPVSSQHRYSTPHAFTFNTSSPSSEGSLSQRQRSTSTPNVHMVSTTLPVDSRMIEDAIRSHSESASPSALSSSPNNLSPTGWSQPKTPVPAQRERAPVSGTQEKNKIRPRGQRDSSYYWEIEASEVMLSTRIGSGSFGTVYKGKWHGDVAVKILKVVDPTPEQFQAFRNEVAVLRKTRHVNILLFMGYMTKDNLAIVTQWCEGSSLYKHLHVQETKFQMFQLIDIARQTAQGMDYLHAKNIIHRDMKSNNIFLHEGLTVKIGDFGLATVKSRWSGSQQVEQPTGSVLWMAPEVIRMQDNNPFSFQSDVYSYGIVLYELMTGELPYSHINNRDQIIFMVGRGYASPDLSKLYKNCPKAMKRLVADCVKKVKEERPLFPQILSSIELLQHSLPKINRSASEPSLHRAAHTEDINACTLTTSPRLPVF
How it was run: as §1

Row | % inhibition CHK1(h) (CHK1(h)) [%] | % inhibition DDR2(h) (DDR2(h)) [%] | % inhibition FGFR1(h) (FGFR1(h)) [%] | % inhibition Lyn(h) (Lyn(h)) [%] | % inhibition Plk1(h) (Plk1(h)) [%] | % inhibition Plk3(h) (Plk3(h)) [%] | % inhibition SIK(h) (SIK(h)) [%] | % inhibition c-RAF(h) (c-RAF(h)) [%] | SMILES | ring closure, yield of all isomers [1] [%]
1 | – | – | – | – | – | – | – | – | C=C[C@@H]1C[C@@H]2/C=C/COc3cccc(c3)Nc3ncc(F)c(n3)N[C@H]2[C@H]1C(N)=O (single isomer, unassigned) [Example 3] | 15
2 | 101 | 96 | 5 | 12 | 87 | 104 | 25 | 107 | CN1CCN(c2ccc3cc2OCCS[C@@H]2C[C@@H]4C[C@H]2[C@@H](Nc2nc(ncc2F)N3)[C@H]4C(N)=O)CC1 [Example 22] | –
